Test results reported in patent publication US11458094B2, “Compositions and methods for treating pulmonary edema or lung inflammation” (priority 2018, dated 2022).

Key:
[1] = test system: rat lung mucosa and airspaces; details: in vivo
Description: (§4) Therefore, the liothyronine sodium and the vehicle were adjusted to neutral pH (6.0-8.0) with sterile 1.0 N HCl (Sigma-Aldrich, St. Louis, Mo.) added aseptically in a biosafety cabinet prior to intratracheal instillation into animals. Using aseptic technique, vials of liothyronine sodium were opened and the entire contents were transferred into sterile 1.5 mL Eppendorf tubes. 80-90 μL of 1.0 N HCl was added to the tube and gently vortexed, and the pH was measured using pH test strips (pH 4.5 to 10.0, Ricca Chemical Co., Arlington, Tex.). Additional HCl was titrated in gradually, as needed, until the pH was in the desired range. […] This solution was stored at 4° C. and used for up to 26 hours after pH adjustment procedure. […] The vehicle was also adjusted to neutral pH (6.0-8.0) with 1.0 N HCl as described above. Using aseptic technique the vehicle was filter sterilized and aliquoted into 21 sterile disposable tubes (5 mL each) and stored at 4° C., and a new tube was opened for each day of use. Normal Saline (0.9% Sodium Chloride Injection USP, B. Braun Medical, Inc., Bethlehem, Pa.), was stored at room temperature. A new package was opened for each day of use.

Nrf2 = assay: Western blot of Nrf2 (total cellular and nuclear) in RLE-6TN cells under hyperoxia; assay type: cell-based, rat; details: 24 hours hyperoxia, T3 10^−6 M
Text: FIG. 9. […] The cells were then collected for Western Blotting analysis. (A) Cellular total protein of Nrf2. (B) Nuclear Nrf2.
FIG. 12. T3-induced increase in Nrf2 and HO-1 protein via PI3K in hyperoxia. (A) Western Blot and densitometry data for total Nrf2. (B) Western Blot and densitometry data for cytoplasmic Nrf2. (C) Western Blot and densitometry data for nuclear Nrf2.
Nuclei were extracted with NE-PER nuclear and cytoplasmic extraction reagents kit (Thermo Fisher Scientific, Inc., Waltham, Mass.) following the manufacturer's instruction.
(§1) The cells were lysed in lysis buffer containing 20 mM Tris·HCl (pH 7.5), 150 mM NaCl, 1 mM EDTA, 1 mM EGTA, 1% (vol/vol) Triton X-100 with protease inhibitors (1 mM PMSF, 2 μg/ml pepstatin, and 10 μg/ml each of aprotinin and leupeptin), and phosphatase inhibitors (2.5 mM sodium pyrophosphate, 1 mM β-glycerophosphate, and 1 mM Na3VO4). The lysate was drawn 10 times through a 25-gauge needle on ice for further lysis and then was centrifuged at 13,000 rpm for 15 minutes at 4° C. The supernatant was collected, and the protein concentrations were determined by use of the BCA protein assay kit (Sigma-Aldrich, St. Louis, Mo.). Immediately after this step, equal amounts of protein were subjected to Western blotting analysis.

HO-1 = assay: Western blot of HO-1 in RLE-6TN cells under hyperoxia; assay type: cell-based, rat; details: T3 10^−6M
Description: (§2) FIG. 10. HO-1 Upregulation is required for T3-increased RLE-6TN cell survival in hyperoxia. […] The cells were then collected for Western Blot analysis. (B) The cells were incubated in 21% O2 and 5% CO2 for 72 hours in the present of HO-1 inhibitor Tin Protoporphyrin IX(10^-6M) tinT3 (10^−6M). […] Cell viability is assessed with trypan blue. The number of viable cells under specific conditions is presented as a percentage of the cell number related to hyperoxia alone. Data are mean±s.d. of three independent experiments with *=P<0.05; **=P<0.01.
as §1

[2] = test system: myeloperoxidase (MPO) activity in lung tissue; assay: Hyperoxia-induced lung injury in rats: lung myeloperoxidase (MPO) assay; assay type: in vivo, Sprague Dawley rats; details: 60 hours hyperoxia, ip T3
Text: (§3) All experimental protocols for animal treatments were approved by the University of Minnesota Institutional Animal Care and Use Committee. […] The room-air control rats were kept in the University animal housing facility. At the end of hyperoxic exposure, rats were sacrificed by intraperitoneal pentobarbital injection, and the lungs were harvested; the right lobes were allocated for histopathology, measurement of lung tissue myeloperoxidase (MPO) activity and wet-to-dry weight ratio. The left lobes underwent bronchoalveolar lavage (BAL) to determine BAL protein concentrations and differential cell counts.
To quantify the neutrophil activity in the lung, MPO activity was assayed as previously described (Abraham et al., J Immunol 165:2950-2954, 2000). Lung tissues without prior lavage were frozen in liquid nitrogen, weighed, and stored at −86° C. The lungs were homogenized for 30 seconds in 1.5 ml 20 mM potassium phosphate, pH 7.4, and centrifuged at 4° C. for 30 minutes at 40,000×g. The pellet was resuspended in 1.5 ml 50 mM potassium phosphate, pH 6.0, containing 0.5% hexadecyltrimethylammonium bromide, sonicated for 90 seconds, incubated at 60° C. for two hours, and centrifuged at 14,000 rpm for 30 minutes at 4° C. The supernatant was assayed for peroxidase activity corrected to lung weight. MPO was expressed as activity per gram of lung tissue.

Akt = Akt phosphorylation (Ser473) in RLE-6TN cells under hyperoxia; assay type: cell-based, rat; details: hyperoxia 24 hours, T3 added for 20 minutes, vs room air control and hyperoxia alone
Description: as §1

[3] = Toxicity phase: intratracheal instillation once daily for five consecutive days (GLP safety study); assay type: in vivo, Sprague-Dawley rats
Description: Safety studies are described in Example 3, below. In a safety study conducted in compliance with Good Laboratory Practices (GLPs), 0.3 mL (300 μl) was administered to rats weighing 250-350 grams via intratracheal instillation daily for five consecutive days. […] The calculated dose based on lung weight was about 1.57 μg/g wet lung weight.
This study was conducted using both male and female Sprague-Dawley rats (Envigo, Huntingdon, United Kingdom). Evaluation of the safety of the tracheal route of instillation for liothyronine sodium injection in human clinical trials can be accomplished in this species at appropriate dose levels. Furthermore, responses to thyroid hormone in rats are similar to responses in humans, and the choice of the rat model is based in large part on pharmacologic data from studies of thyroid hormone and associated receptors and physiological responses in rat lung. The University of Minnesota is accredited by the Association for the Assessment and Accreditation of Laboratory Animal Care, International (AAALAC) and registered with the United States Department of Agriculture to conduct research in laboratory animals. Animal studies conformed to NIH guidelines (Guide for the Care and Use of Laboratory Animals. NIH publication No. 86-23. Revised 1985). The protocol was reviewed and approved, as applicable, by the Institutional Animal Care and Use Committee (IACUC) at the University of Minnesota for compliance with regulations prior to study initiation or implementation of amended activities.
Sixty animals (plus two spare animals/sex/group) were anesthetized and dosed via intratracheal instillation of test or control materials for five consecutive days. On the day after the last dose a terminal blood collection was performed for clinical pathology, after which animals were euthanized and a gross examination of all organs was performed by a board certified veterinary pathologist. Select tissues were collected for histopathology. […] Terminal blood collection was performed at two designated time points per animal up to 24 hours after administration for toxicokinetic evaluation. TK animals were euthanized without further evaluation after the final blood collection. All animals were acclimated for a minimum of seven days prior to the dosing procedure. Animals underwent baseline observations and examinations prior to the initiation of the study, and clinical observations and body weight monitoring were performed throughout the in-life portion of the study. All animals received the same dose volume (0.3 mL) of either test or control materials. This maximum feasible dose (MFD) is constrained by the maximum volume that can be safely and reproducibly (over five days) instilled into lungs of rats weighing 250 g to 350 g, which was determined in preliminary toxicology studies to be 0.3 mL. Actual doses delivered are reported as both μg/kg body weight and μg/gm wet lung weight. The toxicity phase animals were 72-135 days of age at the time of initial dosing. Males weighed between 256.52 g and 307.50 g with a mean±standard deviation of 286.74±11.77 g, and females weighed between 250.46 g and 299.01 g with a mean±standard deviation of 260.64±10.34 g. The TK phase animals were 68-144 days of age at the time of initial dosing. Males weighed between 261.23 g and 316.19 g; females weighed between 250.06 g and 280.32 g.
Test and control materials were drawn into dosing syringes using aseptic technique. Using a 18G needle, 0.5 mL of air was drawn into a 1 cc syringe followed by 0.3 mL (300 μL) of the solutions. Animals were anesthetized with a combination of ketamine, 40 mg/kg to 200 mg/kg, and xylazine, 1 mg/kg to 7 mg/kg intraperitoneally (IP), to effect. The dose was adjusted daily, as needed, based on individual animal response and recovery. Depth of anesthesia was evaluated by toe pinch, and eye lubricant was applied to the eyes. […]

[4] = Preliminary dose-finding studies, 3.0 μg neutral pH T3 intravenous vs intratracheal; assay type: in vivo, rats
[5] = single oral dose of 50 micrograms; cited from earlier work
[6] = test system: rat lung mucosa and airspaces; assay: Preliminary studies: intratracheal instillation of liothyronine sodium without pH adjustment; details: rats, pH of >10.0 as supplied commercially
Description: as §4

[7] = test system: hyperoxia-induced lung injury; assay: Hyperoxia-induced lung injury in rats: lung histology and MPO immunostaining; assay type: in vivo, Sprague Dawley rats
Description: FIG. 17. […] Immunostaining was performed with primary: anti-MPO antibody. Black dots represent MPO-positive cells.
FIG. 18. […] (A) Control: room air; (B) Hyperoxia; (C) Hyperoxia+T3.
as §3
Lung tissue was removed and inflation fixed at 20 cm water pressure in 4% paraformaldehyde, paraffin embedded, cut as 5 micron sections and mounted onto poly-L-lysine slides. Sections were deparaffinized in xylene, rehydrated through a graded alcohol series in methanol, and placed in a 98° C. water bath for 30 minutes in citrate buffer (pH 6.0) for antigen retrieval. After quenching with 0.3% hydrogen peroxide in PBS, sections were incubated in normal serum for 30 minutes and for 15 minutes each with Avidin/Biotin Blocking Kit (Vector Laboratories, Inc., Burlingame, Calif.). […]

[8] = test system: hyperoxia-induced lung injury; assay: Hyperoxia-induced lung injury in rats: bronchoalveolar lavage protein and cell number; assay type: in vivo, Sprague Dawley rats; details: ip T3
Text: as §3
Bronchoalveolar lavage (BAL) of the left lung was performed using a modification of a method previously described (Pace et al., Exp Lung Res 35:380-398, 2009). Briefly, 4 mls of ice-chilled 1× PBS (pH 7.4) were instilled into the left lung, withdrawn, and re-instilled two subsequent times prior to analysis of the lavage fluid. The retrieved BAL fluid was centrifuged at 1500 rpm for 10 minutes to remove cells and debris. The cell pellet was resuspended in 1 ml of 1× PBS (pH 7.4) and total cell number was counted using a hemocytometer. BAL cytospin preparations were stained using the Hema3 stain kit (Thermo Fisher Scientific, Inc., Waltham, Mass.) to identify the nucleated cells. The protein concentration was determined on the supernatants of BAL fluid using a standard BCA assay (Sigma-Aldrich, St. Louis, Mo.).

RLE-6TN cells = assay: RLE-6TN cell survival and recovery under hyperoxia, viable cells by trypan blue exclusion; assay type: cell-based, rat
Description: FIG. 7. […] The cells were cultured in DMEM/F12 with 10% FBS in 21% O2 and 5% CO2 overnight. […] The viable cells are counted immediately after 72-hour hyperoxia exposure. Cell viability is assessed with trypan blue. The amount of viable cells under specific conditions is presented as a percentage of the cell number from hyperoxia alone. Data are mean±s.d. of four independent experiments with *=P<0.05; **=P<0.01.
FIG. 8. […] In both (A) and (B), the number of viable cells under specific conditions is presented as a percentage of the cell number related to hyperoxia alone in the same experiment. Data are mean±s.d. of four independent experiments with *=P<0.05; **=P<0.01.
as §2
FIG. 11. PI3K inhibitor wortmannin blocked T3-induced cell survival in hyperoxia. […] Cell viability is assessed with trypan blue. The number of viable cells under specific conditions is presented as a percentage of the cell number related to hyperoxia alone. Data are mean±s.d. of four independent experiments with *=P<0.05; **=P<0.01.
At the end of the hyperoxia exposure period, the viable cells were counted by trypan blue dye exclusion.

## N[C@@H](Cc1cc(I)c(Oc2ccc(O)c(I)c2)c(I)c1)C(=O)O [T3, triiodothyronine]
[1]
  toxicity to rat lung mucosa and airspaces: extremely toxic
Nrf2
  nuclear Nrf-2 protein expression: significantly increased
  total cellular Nrf-2 protein expression: significantly increased
HO-1
  total cellular protein of HO-1: significantly enhanced
[2]
  hyperoxia-induced lung MPO activity: significantly reduced
Akt
  phosphorylation of Akt at Ser473: augmented
[3]; T3 females, toxicity phase
  body weight at terminal euthanasia vs pre-dose: weighed slightly less than their pre-dose weight
[3]; T3 test group, toxicity phase, judged not test article related
  animals that died after dose administration: two
[3]; during the course of the study
  clinical observations: No adverse T3 related clinical observations
[3]; female rats, toxicity phase, vs males or control groups
  regain of body weight: did not regain body weight at the same rate
[3]; male rats
  hematology parameters: no statistical or clinically significant changes
[3]; toxicity phase rats
  treatment-related macroscopic or microscopic findings in end organs: no macroscopic or microscopic findings
[3]; toxicity phase rats, five days intratracheal
  organ weight of the lungs: no differences
[4]; five days of intratracheal delivery of 3.0 μg neutral pH T3
  acute effects on physiologic parameters (respiratory rate, O2 saturation, heart rate): no acute effects
[4]; single intravenous delivery of 3.0 μg neutral pH T3
  acute effects on physiologic parameters (respiratory rate, O2 saturation, heart rate): no acute effects
[5]
  mean half-life: 22.5 h
[6]
  tolerance of intratracheal instillation: do not tolerate
[7]; 95% oxygen 60 hours, T3-injected
  MPO-positive cells in the lungs vs hyperoxia without T3: fewer MPO-positive cells
[7]; 60 hours hyperoxia, systemic T3 supplementation
  lung morphology (histopathology): virtually normal lung morphology
[8]; 48 hour hyperoxia
  hyperoxic increase in BALF protein concentration: attenuated significantly
[8]; 48 hours hyperoxia
  BALF cell numbers vs hyperoxia alone: significantly reduced
[8]; 60 hour hyperoxia
  hyperoxic increase in BALF protein concentration: attenuated significantly
[8]; 60 hours hyperoxia
  BALF cell numbers vs hyperoxia alone: significantly reduced

## NC(Cc1ccc(Oc2cc(I)c(O)c(I)c2)c(I)c1)C(=O)O (centres unmarked) [rT3]
RLE-6TN cells; 90% oxygen 72 hours, 10^−6M
  cell survival under hyperoxia: no role in cell survival

## C=Cc1c2[n-]c(c1C)/C=c1\[n-]/c(c(C)c1C=C)=C\c1[n-]c(c(CCC(=O)O)c1C)C=c1[n-]/c(c(C)c1CCC(=O)O)=C\2.[Sn+4] [Tin protoporphyrin, Tin Protoporphyrin IX]
RLE-6TN cells; 21% O2 72 hours, 10^-6M
  AT2 cell number in room air: no effect
RLE-6TN cells; 90% O2 72 hours, with T3 10^−6M, inhibitor 10^-6M
  effect on T3-caused increase in cell survival in hyperoxia: blocked
